# Data published in PMC10845954, “Novel antimicrobial peptides identified in legume plant, Medicago truncatula” (Microbiology Spectrum, 2024).
# Where a SMILES comes first, the peptide text is derived from it. Where no end group is shown, it is not given here.
# How the values were obtained:
# [1] = test system: leukemia (K562) cell line; experiment: Cell viability (MTT assay); type: cell-based, human; conditions: 100 µM, 24 hrs exposure, absorbance 540 nm, cutoff 20%, mean of four independent experiments
# Experimental: Dulbecco’s modified Eagle medium (DMEM) supplemented with 10% fetal bovine serum (FBS) and 1% penicillin (10.000 IU/mL)/streptomycin (50 mg/mL) was used to grow the […] human leukemia cell line (K562) in flasks at 37°C in a humidified environment of 5% CO2/air.
# K562 cells were cultivated in DMEM with FBS 10% and penicillin–streptomycin 1%, and they were incubated at 37°C with 5% CO2 present. Using the MTT assay, the cytotoxicity of the three NCRs was evaluated. K562 cells were grown at a density of 3–4 × 10^4 cells per well in a 96-well plate and allowed to adhere for 24 hrs. […] Using a microplate reader, absorbance was measured at 540 nm. […]
# Fig 7 The toxicity % of the NCRs (NCR094 and NCR992) toward leukemia cell line (K562). […] Absorbance was read at 540, and the toxicity% was calculated from four independent experiments, and the results were represented as average of the % toxicity and standard deviations from four independent experiments. […]
# The cells were treated with were treated with 10-fold concentration (100, 10, 1, 0 μM) of NCR992.1 After 24 hrs exposure, MTT were added, and cells were incubated for 4 hrs. […] Absorbance was read at 540 and the toxicity% were calculated and the results were presented as means and error bars were ± SD values from four independent experiments.
# K. pneumoniae ATCC700603 [2] = type: cell-based, Klebsiella pneumoniae
# Experimental: (§1) Bacterial strains used in the experiment were MRSA ATCC29213 and K. pneumoniae ATCC700603. Three NCRs, NCR094 (GenBank# KEH42094.1), NCR992 (GenBank# KEH8992.1), and NCR888 (GenBank# KEH37888.1), and designed derivatives were supplied from GenScript (United States). MRSA and K. pneumoniae were streaked for colonies on blood agar plates and incubated at 37°C for 18–24 hrs. MRSA and K. pneumoniae’s colonies were cultured in cation-adjusted Mueller–Hinton broth (MHB) media and incubated at 37°C for 18–24 hrs. For the in vitro killing assay and the ex vivo human killing assay, MRSA and K. pneumoniae were cultured on an MHB agar plate for 18 hrs at 37°C.
# (§2) A broth microdilution assay in cation-adjusted MHB (MilliporeSigma, United States) was used to determine the minimum inhibitory concentrations (MICs) and the mimium bactericidal concentration (MBCs) of our NCR collection’s NCR094, NCR888, and NCR992. After a final bacterial inoculum of 5 × 10^5 CFU/mL was set and incubated for an overnight period at 37°C, the MIC of the NCRs that prevented MRSA or K. pneumoniae from growing visibly was measured. The MBCs was measured by subculturing the broths used in MIC determination into fresh NCR-free agar plates. The MICs of the NCRs were measured after the NCRs were added to the MRSA or K. pneumoniae cultures and dissolved in sterile distilled water.
# The bacterial cultures of MRSA and K. pneumoniae were treated with different concentrations of the synthetic NCRs (MRSA: 25, 12.5, 6.25, 3.125, and 0 µM; K. pneumoniae: 50, 25, 12.5, 6.25, 3.125, and 0 µM). […] Thus, NCR888 in the wild type and the different variants were not included in the downstream assays.
# human erythrocytes = experiment: Human red blood cell hemolysis; type: cell-based; conditions: 100 µM
# Experimental: With a few minor modifications, red blood cell hemolysis was carried out as previously described ([21]). On a 96-well microtiter plate, 100, 10, 1, and 0 µM NCRs, NCR094 and NCR992 were placed in each well, and […] of 1× PBS was carried out across the plate. Each well received an equivalent volume of 1% human erythrocytes that had been re-suspended in PBS after being washed once with PBS (5 minutes by centrifugation at 3,000 × g to prevent non-specific red blood cell lysis). The plate was then incubated at 37°C for 24 hrs.
# As negative and positive controls for hemolysis, respectively, PBS alone and 1% sodium hypochlorite alone were utilized. At a wavelength of 405 nm, hemoglobin release was measured, and the hemolytic capability was expressed as a percentage of the sodium hypochlorite control (100%). The normalization equation normalization = NCR average – negative control average was used to compute the hemolysis percentage. Hemolysis percentage = normalization of NCRs ÷ average of positive control × 100. The hemolysis of 20% and above was considered as toxic to human red blood cells as reported previously ([22]). The mean values and standard deviation (SD) for each assay were carried out in triplicate and repeated three times.
# Fig 6 The hemolysis % of the NCRs (NCR094 and NCR992) toward human red blood cells. One percent human red blood cells were treated with 100 µM of the NCRs. (A) NCR094 WT, NCR094.1, NCR094.2, and NCR094.3. (B) NCR992 WT, NCR992.1, NCR992.2, and NCR992 for 16 hrs without shaking. One hundred […] of supernatants was transferred into a new 96-well plate, and the absorbance was measured using a plate reader at 405 nm wavelength. Polymyxin B treatment was […] control. The results were represented as average of the % hemolysis and standard deviations from three independent experiments.
# Figure S.1. Dose-dependent hemolysis assay for the NCR collection used in this study.
# 1% Human red blood cells were treated with 10-fold concentration (100, 10, 1, 0 μM) of NCRs A) (NCR094.1, B)
# NCR992 WT) C) NCR992.1, D) NCR992.2, and E) NCR992.1for 18 hrs without shaking. […] of supernatants
# were transferred into new 96-well plate and the absorbance was measured using a plate reader at 405 nm wavelength.
# The results were represented as average of the % hemolysis and error bars were ± SD values from three independent
# (also on this page, place not known: 10100 % of Toxicity 10100 80% of Toxicity 10100 % of Toxicity 10100 % of Toxicity 10100 S- % of Toxicity A)
# MRSA ATCC29213 = experiment: Broth microdilution MIC/MBC; type: cell-based, Staphylococcus aureus; conditions: tested 25, 12.5, 6.25, 3.125 µM; post-18 hrs of treatment
# Experimental: as §1
# as §2, with “water. […]” for “water.”
# K. pneumoniae ATCC700603 [3] = type: cell-based, Klebsiella pneumoniae; conditions: human whole blood, 12.5 µM, 18 hrs 37°C; mean of three independent experiments
# Experimental: The whole killing assay was performed as previously described ([19]). Briefly, freshly drawn peripheral venous whole blood was collected on a heparin tube from healthy adult volunteers. To do this, unchallenged blood with and without NCRs at the MIC (blood from the same individuals) was used. Whole blood was then challenged with MRSA or K. pneumoniae ex vivo and incubated for an overnight period at 37°C. Tenfold serial dilution was plated on MH agar media post-18 hrs treatment ([19]). Killing% was calculated as follows: killing% = CFUs for no treatment − CFUs for NCR treatment ÷ […] × 100. Three independent experiments were performed.
# The killing effect of NCRs on MRSA and K. pneumoniae was investigated using an ex vivo whole blood killing assay as a preliminary screening method to discover peptides with potential immune-boosting activity. […] The bactericidal ability (killing%) of human whole blood was monitored by counting the CFUs post-18 hrs, and the killing% was calculated.
# Fig 2 Whole blood killing assay of NCR094 in the wild type and the derivatives, ex vivo antimicrobial assay. […] CFUs were calculated to estimate the killing percentage. […]
# Fig 4 Whole blood killing assay of NCR992 in the wild type and the derivatives, the ex vivo antimicrobial assay. […] CFUs were calculated to estimate the killing percentage. […]
compound,measurement,setting,value
CC[C@H](C)[C@H](NC(=O)[C@H](CCSC)NC(=O)CNC(=O)[C@H](Cc1ccccc1)NC(=O)[C@H](CCC(=O)O)NC(=O)[C@H](CS)NC(=O)[C@@H](N)CCSC)C(=O)N[C@@H](CCCNC(=N)N)C(=O)N[C@@H](CCCNC(=N)N)C(=O)N[C@@H](CS)C(=O)N[C@H](C(=O)N[C@@H](CO)C(=O)N[C@@H](Cc1ccc(O)cc1)C(=O)N[C@@H](CCCCN)C(=O)N[C@@H](CS)C(=O)N[C@@H](CCC(N)=O)C(=O)N[C@@H](CS)C(=O)N[C@@H](Cc1c[nH]cn1)C(=O)N[C@@H](CCC(=O)O)C(=O)N[C@@H](C)C(=O)N[C@@H](Cc1ccc(O)cc1)C(=O)O)[C@@H](C)CC [NCR992] (H-MCEFGMIRRCISYKCQCHEAY-OH; N-terminus and C-terminus assumed),toxicity % toward K562,[1],8.54%
CC[C@H](C)[C@H](NC(=O)[C@H](CCCCN)NC(=O)[C@@H](NC(=O)[C@H](C)NC(=O)[C@H](CCCNC(=N)N)NC(=O)[C@H](CS)NC(=O)[C@H](Cc1ccc(O)cc1)NC(=O)[C@H](CC(N)=O)NC(=O)CNC(=O)[C@@H](NC(=O)[C@H](CS)NC(=O)[C@H](CCCNC(=N)N)NC(=O)[C@H](Cc1ccc(O)cc1)NC(=O)[C@@H](NC(=O)[C@@H](NC(=O)[C@H](CCC(N)=O)NC(=O)[C@H](CO)NC(=O)[C@H](CCCCN)NC(=O)[C@@H]1CCCN1C(=O)[C@H](CS)NC(=O)[C@H](CC(=O)O)NC(=O)[C@H](Cc1c[nH]cn1)NC(=O)[C@@H](NC(=O)[C@@H](NC(=O)[C@H](CCCCN)NC(=O)[C@H](CS)NC(=O)[C@H](CCCCN)NC(=O)[C@H](CC(C)C)NC(=O)[C@@H](N)Cc1ccc(O)cc1)[C@@H](C)O)C(C)C)C(C)C)C(C)C)C(C)C)C(C)C)C(=O)N[C@@H](CCCNC(=N)N)C(=O)N[C@@H](CCCNC(=N)N)C(=O)N[C@@H](Cc1c[nH]c2ccccc12)C(=O)N[C@@H](CC(N)=O)C(=O)N[C@@H](CC(C)C)C(=O)NCC(=O)O [NCR094] (H-YLKCKTVHDCPKSQVVYRCVGNYCRAVKIRRWNLG-OH; N-terminus and C-terminus assumed),minimum inhibitory concentration (MIC),K. pneumoniae ATCC700603 [2]; ATCC700603,12.5 µM
same,"minimum bactericidal / killing concentration (MBC), complete killing","K. pneumoniae ATCC700603 [2]; ATCC700603, 18 h",25 µM
same,hemolysis %,human erythrocytes,15.41%
"MCWPSFKPRCSNGWCVCDKIMP [NCR888, wild-type nodule-specific cysteine-rich peptide of Medicago truncatula, 22 residues, chemically synthesized]",inhibition or killing of K. pneumoniae (in words),"K. pneumoniae ATCC700603 [2]; tested 50, 25, 12.5, 6.25, 3.125 µM, post-18 hrs of treatment",did not inhibit or kill
same,inhibition or killing of MRSA (in words),MRSA ATCC29213,did not inhibit or kill
YLKSKTVHDSPKSQVVYRSVGNYCRAVKIRRWNLG [NCR094.3],Killing% of K. pneumoniae ex vivo,K. pneumoniae ATCC700603 [3],relatively similar killing activity
same,hemolysis %,human erythrocytes,0.69%
